These are literature values, as cited in patent US11712474B2, “Reduction of post-surgery cancer metastasis by combination of cannabidiol and NR2F6 inhibition” (priority 2019, dated 2023).

Data set [1] has as its system mitogen-activated human peripheral blood mononuclear cells (PBMC).
The mark [2] stands for this setting: cells of CBD-treated mice vs untreated control mice.

SMILES strings stand for the structures. Read-outs that look alike come from different tables or passages of the source.

On to `C=C(C)[C@@H]1CCC(C)=C[C@H]1c1c(O)cc(CCCCC)cc1O` [CBD, cannabidiol], for which, in the data set on NOD mice (CBD-treated NOD mice), the “insulitis, histological examination of pancreatic islets” value is on record as “significantly reduced”; the “plasma levels of pro-inflammatory cytokines IFN-gamma and TNF-alpha” value is given as “significant reduction”. For the same compound, the incidence of diabetes in the data set with NOD mice (CBD-treated NOD mice, 86% in non-treated control mice) is recorded as 30%. For the same compound, in the data set with NOD mice (setting [2]), the “Th1-associated cytokine production of in vitro activated T-cells and peritoneal macrophages” value is given as “significantly reduced”; the “production of Th2-associated cytokines IL-4 and IL-10” value is recorded as “increased”. Also, in data set [1], the IL-2 secretion entry is on record as “no effect”, the “increase of the concentration of measurable IFN” value is given as 68%, the “measurable quantity of IL-1” value is given as “decrease” and the “measurable quantity of TNF” value is “decrease”. Also, the “synthesis and/or release of IFN” value in data set [1] (high concentrations, 5-20 micrograms/ml) was “completely blocked”.

For the compound `CCCCCc1cc(O)c2c(c1)OC(C)(C)[C@@H]1CCC(C)=C[C@@H]21` [THC, delta-9-tetrahydrocannabinol], in data set [1], the IL-2 secretion result is given as “no effect”, the “increase of the concentration of measurable IFN” value is recorded as 139% and the “synthesis and/or release of IFN” value is on record as “completely blocked”.
